Where a SMILES comes first, the peptide text is derived from it. The star is where a group is joined. OBn = c1ccc(CO*)cc1
Assays:
Assay type in all cases: functional
[1] = test system: Mus musculus; assay: Analgesic activity in mouse assessed as pain threshold variation at 25 umol/kg, po after 120 mins (RVb = 0.69 +/- 1.98 %)
[2] = test system: Mus musculus; assay: Analgesic activity in mouse assessed as pain threshold variation at 25 umol/kg, po after 30 mins (RVb = -1 +/- 2.8 %)
[3] = test system: Mus musculus; assay: Analgesic activity in mouse assessed as pain threshold variation at 25 umol/kg, po after 60 mins (RVb = -6.5 +/- 1.79 %)
[4] = test system: Mus musculus; assay: Analgesic activity in mouse assessed as pain threshold variation at 25 umol/kg, po after 90 mins (RVb = 0.2 +/- 3.75 %)
[5] = test system: Mus musculus; assay: Analgesic activity in mouse assessed as pain threshold variation at 25 umol/kg, po after 150 mins (RVb = 3.98 +/- 4.03 %)
[6] = test system: Mus musculus; assay: Analgesic activity in mouse assessed as pain threshold variation at 25 umol/kg, po after 180 mins (RVb = -5.10 %)
[7] = test system: Mus musculus; assay: Analgesic activity in mouse assessed as pain threshold variation at 30 umol/kg, po after 30 mins (RVb = 0.13 +/- 0.14 %)
[8] = test system: Mus musculus; assay: Analgesic activity in mouse assessed as pain threshold variation at 30 umol/kg, po after 60 mins (RVb = 0.15 +/- 0.16 %)
[9] = test system: Mus musculus; assay: Analgesic activity in mouse assessed as pain threshold variation at 30 umol/kg, po after 90 mins (RVb = 0.17 +/- 0.14 %)
[10] = test system: Mus musculus; assay: Analgesic activity in mouse assessed as pain threshold variation at 30 umol/kg, po after 120 mins (RVb = 0.18 +/- 0.15 %)
[11] = test system: Mus musculus; assay: Analgesic activity in mouse assessed as pain threshold variation at 30 umol/kg, po after 150 mins (RVb = 0.16 +/- 0.13 %)
[12] = test system: Mus musculus; assay: Analgesic activity in mouse assessed as pain threshold variation at 30 umol/kg, po after 180 mins (RVb = 0.15 +/- 0.12 %)
[13] = test system: Mus musculus; assay: Analgesic activity in mouse assessed as pain threshold variation at 3 umol/kg, po after 30 mins (RVb = 0.13 +/- 0.14 %)
[14] = test system: Mus musculus; assay: Analgesic activity in mouse assessed as pain threshold variation at 0.3 umol/kg, po after 30 mins (RVb = 0.13 +/- 0.14 %)
[15] = test system: Mus musculus; assay: Analgesic activity in mouse assessed as pain threshold variation at 3 umol/kg, po after 60 mins (RVb = 0.15 +/- 0.16 %)
[16] = test system: Mus musculus; assay: Analgesic activity in mouse assessed as pain threshold variation at 0.3 umol/kg, po after 60 mins (RVb = 0.15 +/- 0.16 %)
[17] = test system: Mus musculus; assay: Analgesic activity in mouse assessed as pain threshold variation at 3 umol/kg, po after 90 mins (RVb = 0.17 +/- 0.14 %)
[18] = test system: Mus musculus; assay: Analgesic activity in mouse assessed as pain threshold variation at 0.3 umol/kg, po after 90 mins (RVb = 0.17 +/- 0.14 %)
[19] = test system: Mus musculus; assay: Analgesic activity in mouse assessed as pain threshold variation at 3 umol/kg, po after 120 mins (RVb = 0.18 +/- 0.15 %)
[20] = test system: Mus musculus; assay: Analgesic activity in mouse assessed as pain threshold variation at 0.3 umol/kg, po after 120 mins (RVb = 0.18 +/- 0.15 %)
[21] = test system: Mus musculus; assay: Analgesic activity in mouse assessed as pain threshold variation at 3 umol/kg, po after 150 mins (RVb = 0.16 +/- 0.13 %)
[22] = test system: Mus musculus; assay: Analgesic activity in mouse assessed as pain threshold variation at 0.3 umol/kg, po after 150 mins (RVb = 0.16 +/- 0.13 %)
[23] = test system: Mus musculus; assay: Analgesic activity in mouse assessed as pain threshold variation at 3 umol/kg, po after 180 mins (RVb = 0.15 +/- 0.12 %)
[24] = test system: Mus musculus; assay: Analgesic activity in mouse assessed as pain threshold variation at 0.3 umol/kg, po after 180 mins (RVb = 0.15 +/- 0.12 %)

## Clc1nc(NC2CC2)c2ncn(C3CCCCO3)c2n1 (stereo not drawn)
[1]
  Activity: 12.64%
[2]
  Activity: 10.27%
[3]
  Activity: 20.63%
[4]
  Activity: 11.93%
[5]
  Activity: 5.72%
[6]
  Activity: 5.92%
[7]
  Activity: 15.2%
[8]
  Activity: 25.61%
[9]
  Activity: 16.96%
[10]
  Activity: 15.66%
[11]
  Activity: 10.78%
[12]
  Activity: 9.95%

## O=C(CN(c1nc(Cl)nc2c1ncn2C1CCCCO1)C1CC1)N[C@@H](CC(=O)OCc1ccccc1)C(=O)OCc1ccccc1 (stereo partly drawn)
[1]
  Activity: 7.82%
[2]
  Activity: 31.81%
[3]
  Activity: 38.15%
[4]
  Activity: 25.07%
[5]
  Activity: 0.06%
[6]
  Activity: 0.03%

## O=C(CN(c1nc(Cl)nc2c1ncn2C1CCCCO1)C1CC1)N[C@@H](CCC(=O)OCc1ccccc1)C(=O)OCc1ccccc1 (stereo partly drawn)
[1]
  Activity: 20.71%
[2]
  Activity: 32.61%
[3]
  Activity: 34.74%
[4]
  Activity: 25.2%
[5]
  Activity: 14.14%
[6]
  Activity: 10.93%

## CC(C)(C)OC(=O)NCCCC[C@H](NC(=O)CN(c1nc(Cl)nc2c1ncn2C1CCCCO1)C1CC1)C(=O)OCc1ccccc1 (stereo partly drawn)
[1]
  Activity: 28.39%
[2]
  Activity: 18.33%
[3]
  Activity: 32.66%
[4]
  Activity: 32.85%
[5]
  Activity: 17.2%
[6]
  Activity: 10.06%

## O=C(CN(c1nc(Cl)nc2c1ncn2C1CCCCO1)C1CC1)N[C@@H](Cc1ccccc1)C(=O)OCc1ccccc1 (stereo partly drawn)
[1]
  Activity: 26.29%
[2]
  Activity: 39.2%
[3]
  Activity: 45.54%
[4]
  Activity: 37.73%
[5]
  Activity: 3.49%
[6]
  Activity: 1.79%

## O=C(CN(c1nc(Cl)nc2c1ncn2C1CCCCO1)C1CC1)N[C@@H](Cc1c[nH]c2ccccc12)C(=O)OCc1ccccc1 (stereo partly drawn)
[1]
  Activity: 22.58%
[2]
  Activity: 43.53%
[3]
  Activity: 51.9%
[4]
  Activity: 38.93%
[5]
  Activity: 11.45%
[6]
  Activity: 5.15%

## O=C(CN(c1nc(Cl)nc2c1ncn2C1CCCCO1)C1CC1)N[C@@H](Cc1ccc(O)cc1)C(=O)OCc1ccccc1 (stereo partly drawn)
[1]
  Activity: 17.44%
[2]
  Activity: 20.53%
[3]
  Activity: 35.82%
[4]
  Activity: 36.45%
[5]
  Activity: 8.71%
[6]
  Activity: 12.02%

## Clc1nc(Cl)c2nc[nH]c2n1
[7]
  Activity: 12.22%
[8]
  Activity: 21.62%
[9]
  Activity: 14.02%
[10]
  Activity: 12.97%
[11]
  Activity: 8.77%
[12]
  Activity: 7.99%

## Clc1nc(Cl)c2ncn(C3CCCCO3)c2n1 (stereo not drawn)
[7]
  Activity: 14.3%
[8]
  Activity: 23.99%
[9]
  Activity: 15.01%
[10]
  Activity: 14.13%
[11]
  Activity: 9.89%
[12]
  Activity: 8.03%

## CSCC[C@H](NC(=O)CN(c1nc(Cl)nc2c1ncn2C1CCCCO1)C1CC1)C(=O)OCc1ccccc1 (stereo partly drawn)
[1]
  Activity: 28.66%
[2]
  Activity: 30.04%
[3]
  Activity: 40.97%
[4]
  Activity: 42.7%
[5]
  Activity: 17.47%
[6]
  Activity: 12.89%

## O=C(OCc1ccccc1)[C@@H]1CCCN1C(=O)CN(c1nc(Cl)nc2c1ncn2C1CCCCO1)C1CC1 (stereo partly drawn)
[1]
  Activity: 17.49%
[2]
  Activity: 32.25%
[3]
  Activity: 36.73%
[4]
  Activity: 23.31%
[5]
  Activity: 7.85%
[6]
  Activity: 6.63%

## O=C(CN(c1nc(Cl)nc2c1ncn2C1CCCCO1)C1CC1)N[C@@H](CO)C(=O)OCc1ccccc1 (stereo partly drawn)
[1]
  Activity: 29.2%
[2]
  Activity: 27.77%
[3]
  Activity: 46.71%
[4]
  Activity: 32.17%
[5]
  Activity: 18.32%
[6]
  Activity: 12.85%

## C[C@@H](O)[C@H](NC(=O)CN(c1nc(Cl)nc2c1ncn2C1CCCCO1)C1CC1)C(=O)OCc1ccccc1 (stereo partly drawn)
[1]
  Activity: 10.91%
[2]
  Activity: 23.61%
[3]
  Activity: 28.36%
[4]
  Activity: 23.38%
[5]
  Activity: 6.53%
[6]
  Activity: 2.34%

## CC(C)[C@H](NC(=O)CN(c1nc(Cl)nc2c1ncn2C1CCCCO1)C1CC1)C(=O)OCc1ccccc1 (stereo partly drawn)
[1]
  Activity: 25.79%
[2]
  Activity: 21.83%
[3]
  Activity: 34.85%
[4]
  Activity: 30.14%
[5]
  Activity: 21.08%
[6]
  Activity: 5.65%

## O=C(O)CN(c1nc(Cl)nc2c1ncn2C1CCCCO1)C1CC1 (stereo not drawn)
[1]
  Activity: 7.68%
[2]
  Activity: 5.21%
[3]
  Activity: 15.24%
[4]
  Activity: 8.22%
[5]
  Activity: 3.12%
[6]
  Activity: 3.41%

## C[C@H](NC(=O)CN(c1nc(Cl)nc2c1ncn2C1CCCCO1)C1CC1)C(=O)OCc1ccccc1 (stereo partly drawn)
[1]
  Activity: 25.3%
[2]
  Activity: 55.91%
[3]
  Activity: 53%
[4]
  Activity: 32.06%
[5]
  Activity: 6.01%
[6]
  Activity: 5.96%
[7]
  Activity: 60.11%
[13]
  Activity: 43.25%
[14]
  Activity: 25.6%
[8]
  Activity: 58.18%
[15]
  Activity: 39.81%
[16]
  Activity: 21.56%
[9]
  Activity: 37.16%
[17]
  Activity: 25.34%
[18]
  Activity: 11.43%
[10]
  Activity: 30.44%
[19]
  Activity: 18.03%
[20]
  Activity: 11.03%
[11]
  Activity: 11.2%
[21]
  Activity: 12%
[22]
  Activity: 10%
[12]
  Activity: 11%
[23]
  Activity: 10%
[24]
  Activity: 8.09%

## NC(=O)C[C@H](NC(=O)CN(c1nc(Cl)nc2c1ncn2C1CCCCO1)C1CC1)C(=O)OCc1ccccc1 (stereo partly drawn)
[1]
  Activity: 29.15%
[2]
  Activity: 34.53%
[3]
  Activity: 30.54%
[4]
  Activity: 34.95%
[5]
  Activity: 21.71%
[6]
  Activity: 15.45%

## NC(=O)CC[C@H](NC(=O)CN(c1nc(Cl)nc2c1ncn2C1CCCCO1)C1CC1)C(=O)OCc1ccccc1 (stereo partly drawn)
[1]
  Activity: 22.34%
[2]
  Activity: 46.96%
[3]
  Activity: 39.4%
[4]
  Activity: 37.82%
[5]
  Activity: 10.72%
[6]
  Activity: 7.71%

## O=C(CN(c1nc(Cl)nc2c1ncn2C1CCCCO1)C1CC1)N[C@@H](Cc1cnc[nH]1)C(=O)OCc1ccccc1 (stereo partly drawn)
[1]
  Activity: 10.16%
[2]
  Activity: 24.98%
[3]
  Activity: 36.43%
[4]
  Activity: 14.45%
[5]
  Activity: 5.31%
[6]
  Activity: 4.38%

## CC[C@H](C)[C@H](NC(=O)CN(c1nc(Cl)nc2c1ncn2C1CCCCO1)C1CC1)C(=O)OCc1ccccc1 (stereo partly drawn)
[1]
  Activity: 20.42%
[2]
  Activity: 25.56%
[3]
  Activity: 27.35%
[4]
  Activity: 22.57%
[5]
  Activity: 16.43%
[6]
  Activity: 9.15%

## CC(C)C[C@H](NC(=O)CN(c1nc(Cl)nc2c1ncn2C1CCCCO1)C1CC1)C(=O)OCc1ccccc1 (stereo partly drawn)
[1]
  Activity: 12.79%
[2]
  Activity: 26.2%
[3]
  Activity: 34.19%
[4]
  Activity: 28.22%
[5]
  Activity: 6.47%
[6]
  Activity: 0.04%

## CCOC(=O)CN(c1nc(Cl)nc2c1ncn2C1CCCCO1)C1CC1 (stereo not drawn)
[1]
  Activity: 14.91%
[2]
  Activity: 9.92%
[3]
  Activity: 22.64%
[4]
  Activity: 13.04%
[5]
  Activity: 11.85%
[6]
  Activity: 5.33%

## C[C@H](NC(=O)CN)C(=O)OCc1ccccc1 (H-Gly-Ala-OBn)
[7]
  Activity: 12.25%
[8]
  Activity: 13.32%
[9]
  Activity: 13.45%
[10]
  Activity: 13.57%
[11]
  Activity: 13%
[12]
  Activity: 12.99%

## NCC(=O)O [GLYCINE]
[7]
  Activity: 10.13%
[8]
  Activity: 11.21%
[9]
  Activity: 11.31%
[10]
  Activity: 12.03%
[11]
  Activity: 11.54%
[12]
  Activity: 10.96%
